In PubChem BioAssay AID449764 (Southern Research Specialized Biocontainment Screening …, 2010):

Test system: Mycobacterium tuberculosis H37Rv growth inhibition, no glycerol
Test: Confirmatory growth inhibition assay, Mycobacterium tuberculosis H37Rv, absence of glycerol (AID 449764);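 further: growth read after 7 days of incubation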
Conditions: for IC90: measured here: IC90 growth inhibition

## CCOc1ccc(-c2cc(C)[n+](CCc3ccc(OC)c(OC)c3)c(-c3ccc(OCC)cc3)c2)cc1
  IC50: 1.66 µM
  IC90: 2.52 µM

## Cc1cc(C)c(C)c(N=Nc2nc3ccccc3n2C)c1C
  IC50: 11.2 µM
  IC90: 12.6 µM

## CCc1ccc(-c2csc(-c3c[nH]c4ccccc34)n2)cc1
  IC50: 17.1 µM
  IC90: 21.3 µM

## O=C(Nc1nc2ccc(F)cc2s1)C1CCN(S(=O)(=O)c2cc([N+](=O)[O-])ccc2Cl)CC1
  IC50: 12 µM
  IC90: 17.6 µM

## Cc1nc(N)nc(N)c1CCCc1ccc(Cl)c(Cl)c1
  IC50: 87.4 µM
  IC90: > 100 µM

## CC(C)(C)c1ccc(C(O)CCCN2CCC(C(O)(c3ccccc3)c3ccccc3)CC2)cc1 (centres undefined)
  IC50: 12 µM
  IC90: 13.7 µM

## COc1cccc(C2C3=C(N=c4s/c(=C\c5cccc(O)c5)c(=O)n42)c2ccccc2CC3)c1OC (centres undefined)
  IC50: 22.7 µM
  IC90: 25.6 µM

## COc1cc2c(cc1OC)C1(Nc3c-2c(-c2ccccc2)nn3-c2ccccc2)C(=O)Nc2ccccc21 (centres undefined)
  IC50: 80.9 µM
  IC90: > 100 µM

## Brc1ccc(N/N=C(/N=Nc2nn[nH]n2)c2ccccc2)cc1
  IC50: 14.4 µM
  IC90: 23.3 µM

## O=C(NCc1nnnn1-c1ccc(F)cc1)c1ccc([N+](=O)[O-])o1
  IC50: 53.7 µM
  IC90: > 100 µM

## CC(C)(C)c1csc(NC(=O)c2c(F)c(F)c(F)c(F)c2F)n1
  IC50: 21 µM
  IC90: 29.4 µM

## COc1c(C)cc(C(=O)C2CCCN(Cc3ccccn3)C2)cc1C (centres undefined)
  IC50: 20.2 µM
  IC90: 29.7 µM

## Cc1ccc(C(=O)c2oc3ccc(Cl)cc3c2NC(=O)CN2CCN(C)CC2)cc1
  IC50: 14.9 µM
  IC90: 19.6 µM

## CCCCCCC[N+](CC)(CC)CCCCc1ccc(Cl)cc1
  IC50: 37.1 µM
  IC90: 49.8 µM

## C(=N\Nc1ncnc2sc3c(c12)CCC3)/c1cccs1
  IC50: 36.9 µM
  IC90: 54.2 µM

## CC(=O)OCC1O[C@@H](O[C@@H]2C[C@H]3C(C)(C)[C@H](OC(C)=O)CC[C@]3(C)[C@H]3CC[C@]45C[C@]4(CC[C@H]5[C@@H](C)C[C@@H](O)[C@H](O)C(C)(C)O)[C@@]32C)[C@H](O)[C@@H](O)[C@@H]1O (some centres undefined)
  IC50: 25.9 µM
  IC90: 35.7 µM

## CC(C)n1cnc2c(NCc3ccccc3)cc(Cc3ccc(F)cc3)cc21
  IC50: 34.4 µM
  IC90: 49.3 µM

## c1ccc2c(C3=NNC(=NC4CCCCC4)SC3)c[nH]c2c1
  IC50: 37.7 µM
  IC90: 45.4 µM

## NC(=O)N=Nc1c2[nH]c3ccccc3nc-2c2ccccc12
  IC50: 5.96 µM
  IC90: 8.44 µM

## C=C1C(=O)[C@@]23[C@H](O)C[C@@H]4C(C)(C)CC[C@H](O)[C@@]4(C)[C@@H]2CC[C@@H]1[C@H]3O
  IC50: 8.35 µM
  IC90: 11.3 µM

## CC[C@H](C)[C@@H]1O[C@@]2(C=CC1C)CC1C[C@@H](CC=C(C)C(O[C@H]3CC(OC)C(O[C@H]4CC(OC)C(O)C(C)O4)C(C)O3)C(C)C=CC=C3CO[C@@H]4C(O)C(C)=C[C@@H](C(=O)O1)[C@]34O)O2 (some centres undefined)
  IC50: 16.5 µM
  IC90: 27.3 µM

## Cc1ccccc1NC(=O)Cc1nc(COC(=O)/C=C/c2ccccc2)cs1
  IC50: 67.7 µM
  IC90: 92.3 µM

## Cc1ccc(C2CC(c3cccs3)=NN2C(=O)CCl)cc1 (centres undefined)
  IC50: 1.42 µM
  IC90: 1.77 µM

## CCOC(=O)c1cc(C)nc(Sc2ccc(C)cc2)c1C#N
  IC50: 5.32 µM
  IC90: 7.74 µM

## Cc1cccc(N2CCN(CC(=O)Nc3nccs3)CC2)c1C
  IC50: 39.3 µM
  IC90: 69.2 µM

## Cc1cc(NC2CCCCC2)nc(-c2ccccc2O)n1
  IC50: 35.9 µM
  IC90: 50.2 µM

## Oc1[nH]c2ccccc2c1N=NC(=S)N1CCOCC1
  IC50: 22.9 µM
  IC90: 24.3 µM

## CCOC1OC(=O)C(Cl)=C1Nc1ccccc1C (centres undefined)
  IC50: 3.39 µM
  IC90: 7.24 µM

## CCOC(=O)c1ccc(NC2=CC(=O)C(=O)c3ccccc32)cc1
  IC50: 37.7 µM
  IC90: 48.3 µM

## CC[C@@H](C)[C@H](CN[C@H](CNC)C(C)C)NC[C@@H](C)c1ccc(CC(C)C)cc1
  IC50: 13.3 µM
  IC90: 15.4 µM

## CCCCN(C)CCNC(=O)c1ccc(Cn2c(=S)[nH]c3ccc(Br)cc3c2=O)cc1
  IC50: 18.9 µM
  IC90: 27.9 µM

## CCCOc1ccc(-c2cnc(SCC(N)=O)nc2N)cc1
  IC50: 42.3 µM
  IC90: > 100 µM

## CN(Cc1ccc(Cl)s1)C(=O)CCl
  IC50: 1.54 µM
  IC90: 1.73 µM

## COc1ccc(C(=O)OCC(=O)c2ccc(Br)s2)c(OC)c1
  IC50: 73.6 µM
  IC90: > 100 µM

## CCOC(=O)CSc1ncc(OC)c(Sc2ccc(OC)cc2)n1
  IC50: 18.1 µM
  IC90: 54.3 µM

## CCc1ccc2oc(-c3ccc(OC)cc3)cc(=Nc3c(C)n(C)n(-c4ccccc4)c3=O)c2c1
  IC50: 18.8 µM
  IC90: 23.4 µM

## CCOc1ccc(-c2cnc(NCc3cccc4ccccc34)n2CCOC)cc1
  IC50: 7.03 µM
  IC90: 11 µM

## N#Cc1cccc2c1-c1ccccc1/C2=N/NC(N)=O
  IC90: > 100 µM

## O=C(Nc1cccc(Cl)c1)N1CCN(C/C=C/c2ccccc2)CC1
  IC50: 35 µM
  IC90: 51.3 µM

## c1ccc(CN2CCN(c3nc(NCc4ccco4)c4ccccc4n3)CC2)cc1
  IC50: 17.2 µM
  IC90: 22.6 µM

## Cc1ccc(Cn2ccsc2=NC(=O)CCl)cc1
  IC50: 2.86 µM
  IC90: 6.73 µM

## C/C(Cl)=C\COc1cc(C)nc2c(Br)cccc12
  IC50: 21.2 µM
  IC90: 24.4 µM

## CC(C)(C)C(=O)/C(=C\c1cccc([N+](=O)[O-])c1)n1cncn1
  IC50: 3 µM
  IC90: 3.41 µM

## C/C(=N\Nc1ccc([N+](=O)[O-])cc1)c1cccc(N)c1
  IC50: 61.2 µM
  IC90: 88.9 µM

## CC1CCN(C(=S)NC(=O)c2cccs2)CC1
  IC50: 23 µM
  IC90: 26.3 µM

## CCOC(=O)C1CCN(c2cc3c(cc2NC(=O)c2ccccc2Cl)n(C)c(=O)n3C)CC1
  IC50: 44.8 µM
  IC90: 51.2 µM

## CN(C)[C@@H]1C(=O)C(C(N)=O)=C(O)[C@@]2(O)C(=O)C3=C(O)c4c(O)cccc4[C@@](C)(O)C3C[C@@H]12 (some centres undefined)
  IC50: 9.73 µM
  IC90: 27.4 µM

## Cc1cc(N2CCN(c3ccc(C(F)(F)F)cc3[N+](=O)[O-])CC2)c2ccccc2n1
  IC50: 22.2 µM
  IC90: 24.9 µM

## COc1ccc(-c2c[n+]3c4n2CCCCC4=C(c2ccccc2)C3)cc1
  IC50: 63.1 µM
  IC90: 78.7 µM

## CCOC(=O)CNc1ccc(C(=O)OCC)cc1[N+](=O)[O-]
  IC50: 18.1 µM
  IC90: > 100 µM

## O=C1CC(=C(c2ccccc2)c2ccccc2)C(=O)N1CCCCN1CCN(c2ccccc2)CC1
  IC50: 25.3 µM
  IC90: 28.8 µM

## O=C(Nc1nnc(-c2ccccc2Cl)o1)c1nc2ccccc2s1
  IC50: 6.33 µM
  IC90: 7.21 µM

## Cc1cc(=O)n2[nH]c(Nc3cccc(Cl)c3)nc2n1
  IC50: 29.1 µM
  IC90: 68 µM

## CCc1ccc(C2c3[nH]c4ccccc4c3CCN2C(=O)c2ccc(=O)n(C)n2)cc1 (centres undefined)
  IC50: 51.3 µM
  IC90: 93.4 µM

## CC(C(Sc1ccccc1N)c1ccccc1)[N+](=O)[O-] (centres undefined)
  IC90: > 100 µM

## Cc1ccc2nc(=O)c(NNc3ccccc3)cnc2c1
  IC50: 35.3 µM
  IC90: > 100 µM

## CC(O)CNc1nc2ccccc2n1-c1ncnc2sc3c(c12)CCC3 (centres undefined)
  IC50: 35.2 µM
  IC90: 42.1 µM

## Cc1nc(-c2nc(-c3c(C(=O)NNC(=O)c4ccc(Cl)cc4)noc3C)cs2)cs1
  IC50: 24.7 µM
  IC90: > 100 µM

## NC(N)=Nc1nc(-c2ccccc2)c2ccccc2n1
  IC50: 90.1 µM
  IC90: > 100 µM

## N#Cc1cccc(NC(=O)N2CCC(c3nc4c(nnn4Cc4cccc(Cl)c4)c(=O)[nH]3)CC2)c1
  IC50: 21.2 µM
  IC90: 23.3 µM

## CCN1/C(=C/c2ccc3cc(C)ccc3[n+]2CC)Sc2ccccc21
  IC50: 2.73 µM
  IC90: 3.07 µM

## c1ccc(C[C@H]2CN=C(Nc3ccccc3)N2CCCC2CCCC2)cc1
  IC50: 33.1 µM
  IC90: 44.5 µM

## CN(C)c1ccc(N=Nc2ccccc2C(=O)OCC(=O)NCC2CCCCC2)cc1
  IC50: 22.1 µM
  IC90: 24.9 µM

## CCN(CC)CCCNc1nc2cc(OC)c(OC)cc2c2nc(-c3ccccc3)nn12
  IC50: 11.1 µM
  IC90: 12.8 µM

## CCc1nnc(NC(=O)CN2CCN(c3nc(-c4ccccc4)cs3)CC2)s1
  IC50: 42.6 µM
  IC90: 92.6 µM

## COCCCn1c(SCc2cccc(OC)c2)nc2cc(OC)c(OC)cc2c1=N
  IC50: 33.9 µM
  IC90: 44.6 µM

## Cc1nn(-c2nc3ccccc3[nH]2)c(N)c1-c1ccc(Cl)cc1
  IC50: 3.72 µM
  IC90: > 100 µM

## COc1ccc(-c2nnc(SCC(=O)N3CCc4ccccc4C3)o2)cc1
  IC50: 30.6 µM
  IC90: 45.3 µM

## Cc1cc2nc(C3CCN(CC4COc5ccccc5O4)CC3)[nH]c2cc1C (centres undefined)
  IC50: 17.8 µM
  IC90: 28.7 µM

## O=C(OCC(=O)N1CCC(c2ccccc2)=N1)c1ccc(Cl)s1
  IC50: 97.6 µM
  IC90: > 100 µM

## CCN(CC)c1ccc(N)cc1
  IC50: 8.96 µM
  IC90: 11.2 µM

## Cc1ccc(-c2noc(C3CCCN(C(=O)c4ccc(C(C)(C)C)cc4)C3)n2)o1 (centres undefined)
  IC50: 53.9 µM
  IC90: 82.6 µM

## CCOC(=O)C(C)Oc1ccc(OCc2ccccc2)cc1 (centres undefined)
  IC50: 9.95 µM
  IC90: 14.6 µM

## CN(CCO)c1cc(Sc2nc3ccccc3s2)c2nonc2c1[N+](=O)[O-]
  IC50: 74.4 µM
  IC90: 95 µM

## CCOc1cccc(/C=C/c2ccc3cccc(O)c3n2)c1O
  IC50: 4.28 µM
  IC90: > 100 µM

## CCC1(c2ccccc2)ON(c2c(Br)cccc2Br)C1=O (centres undefined)
  IC50: 40.2 µM
  IC90: 77.3 µM

## COC(=O)Cn1nc(-c2ccccc2)c2cc(Cl)ccc21
  IC50: 22 µM
  IC90: > 100 µM

## CCNc1nc(Nc2ccc(C)c(Cl)c2)c2cnn(C)c2n1
  IC50: 70 µM
  IC90: > 100 µM

## S=C(NCCN1CCOCC1)N/N=C/c1cccs1
  IC50: 6.31 µM
  IC90: 7.16 µM

## COc1ccc(CNC(=O)c2c(N)n(CCCN3CCOCC3)c3nc4ccccc4nc23)cc1
  IC50: 92.4 µM
  IC90: > 100 µM

## COC(=O)c1ccc(CSc2nc(C(F)(F)F)c3c(c2C#N)CCC3)o1
  IC90: > 100 µM

## CC(=O)N(Cc1ccc(F)cc1)C1=C(NCCc2ccccc2)C(=O)c2ccccc2C1=O
  IC50: 10.2 µM
  IC90: 16.6 µM

## CC(=O)N1CCN(c2ccc(OC[C@H]3CO[C@](Cn4ccnc4)(c4ccc(Cl)cc4Cl)O3)cc2)CC1
  IC50: 14.6 µM
  IC90: 20.8 µM

## Cc1cnc(NC(=O)NCC2CCCC(CNC(=O)Nc3ncc(C)s3)C2)s1 (centres undefined)
  IC50: 36.2 µM
  IC90: > 50 µM

## O=C1/C(=N\S(=O)(=O)c2cccs2)C([n+]2ccc(CCCc3ccccc3)cc2)=C([O-])c2ccccc21
  IC50: 22.8 µM
  IC90: 25.7 µM

## CCCC1CC(C)(c2csc(Nc3ccc(OCC)cc3)n2)OC1=O (centres undefined)
  IC50: 35.3 µM
  IC90: 44.9 µM
